Values after ≈ are worked out from the molar mass of the structure shown. Like-named read-outs stand apart in the source and are kept apart here.
Columns and labels:
MK2 enzyme = biological target: T1, MK2 enzyme (Homo sapiens, UniProt P49137); test: MK2 enzyme activity, IMAP fluorescence polarization assay; assay type: biochemical; conditions: MK2 IMAP assay
T1 construct: MK2 enzyme (active enzyme (peptide 46-end (Millipore))); purchased Millipore
Source text: In another assay the MK2 kinase activity can be determined by using an IMAP assay (Immobilized Metal Assay for Phosphochemicals—based coupled assay). IMAP is a homogeneous fluorescence polarization (FP) assay based on affinity capture of phosphorylated peptide substrates. IMAP uses fluorescein-labeled peptide substrates that, upon phosphorylation by a protein kinase, bind to so called IMAP nanoparticles, which are derivatized with trivalent metal complexes. […] In such an assay, MK2 phosphorylates a fluorescein-labeled peptide substrate (see example 14).
MK2 enzyme activity is measured using the IMAP (immobilized metal ion affinity-based fluorescence polarization) assay as outlined below.
The enzyme is diluted to 100 U/mL the day before use in KR buffer (10 mM Tris-HCl, 10 mM MgCl2, 0.01% Tween-20, 0.05% NaN3, 2 mM DTT, pH 7.2) and stored overnight at −20° C.
The dilutions in DMSO are then diluted 50-fold in KR-buffer of which 5 μl is used in the assay, leading to a final compound concentration range in the assay from 10 μM to 0.316 nM.
After 60 min incubation at room temperature in the dark the FP signal is read. Fluorescence at 535 nm is measured using parallel and perpendicular filters to determine differences in rotation due to binding of the phosphorylated substrate peptide to the beads. Values are calculated as percentage of the difference in readout (ΔmPi) of the controls with and without ATP. EC50 values are determined by curve fitting of the experimental results using Activity Base.

[1] = Solubility determination of MK2 inhibitors (kinetic aqueous solubility, UPLC); assay type: physicochemical; conditions: aqueous buffer (system solution from pION inc.), 22 °C, pH 7.4, aqueous buffer, kinetic from dmso stock
Protocol: The solubility can be determined using the Automated Kinetic Aqueous Solubility (AKASol) method, which is an HPLC-UV based method. The method is derived from the classical saturated shake-flask solubility method which has been adapted to the 96-well microtitre plate format, allowing the use of DMSO stock solutions. The solubility is determined by measuring the amount of compound in a saturated aqueous solution, quantified by an external calibration curve of the compound dissolved in DMSO. The solubility (mg/L) is measured at pH 7.4, at room temperature and the final concentration of DMSO in the sample solution is 1%.
The samples were prepared from 10 mM DMSO stock solutions. For each compound under investigation, a volume (9 μL) of the DMSO stock solution is transferred from the DMSO stock solution into 891 μL of buffer solution (system solution from pION inc.) in a 96 deep well plate, which equates to approximately 1% DMSO, using the Packard Multiprobe II robot liquid handling system. The pH of the buffer is manually adjusted at pH 7.4 by adding NaOH. This procedure is done in duplicate for each sample. After shaking for 24 h on a vortex mixer (Heidolph, Titramax 101) at 450 rpm and at room temperature (21-23° C.), 300 uL of the incubated sample is transferred from the deep well plate to a filter plate (PVDF, 0.45 um) on a vacuum manifold. To the filtrate (150 uL) 1-propanol (50 uL) is added to suppress precipitation and this solution is then analysed by UPLC. The solubility is determined using the calibration line previously prepared.
Preparation of the Standards and Built up of a Calibration Line
The calibration line is built with different concentrations of the test compound (standards), prepared from the same 10 mM DMSO stock solution. A volume (7 uL) from the same DMSO stock solution was diluted with DMSO (273 uL) leading to a solution with concentration of 0.25 mM. From this solution, three different injection volumes (0.2, 1, 1.8 uL) were injected on UPLC. The respective peak areas are plotted against amount of compound to build up the calibration line. The calibration line is used to determine the amount of dissolved compound in each sample, selecting the injection that gave peak areas closest to the peak area range of the calibration standards.

[2] = 1 μM ATP, 30 min pre-incubation, 2 h room temperature, read-out: pEC50 value (converted)
[3] = pH 7.4, room temperature, about 1% DMSO, 24 h shaking, read-out: solubility

T1 sequence (P49137 46-400 limits assumed): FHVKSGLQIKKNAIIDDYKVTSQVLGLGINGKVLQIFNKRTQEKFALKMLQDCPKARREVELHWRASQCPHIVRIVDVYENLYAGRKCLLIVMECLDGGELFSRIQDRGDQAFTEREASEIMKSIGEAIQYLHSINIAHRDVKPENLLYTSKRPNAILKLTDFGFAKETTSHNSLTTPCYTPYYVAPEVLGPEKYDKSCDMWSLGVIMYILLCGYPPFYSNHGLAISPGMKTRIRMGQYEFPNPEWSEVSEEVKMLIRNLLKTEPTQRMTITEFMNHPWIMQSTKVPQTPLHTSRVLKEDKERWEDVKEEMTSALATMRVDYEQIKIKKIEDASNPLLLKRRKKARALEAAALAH

| SMILES | EC50 (MK2 enzyme; [2]) [nM] | solubility at 24 h [1, 3] [mg/L] | further results |
| --- | --- | --- | --- |
| CC(=O)c1ccc(-c2nccc(-c3cc4c([nH]3)C3(CCNCC3)CNC4=O)n2)cc1 [1—6, 2′-(2-(4-acetylphenyl)pyrimidin-4-yl)-5′,6′-dihydrospiro[piperidine-4,7′-pyrrolo[3,2-c]pyridin]-4′(1′H)-one] | 3.16 to 31.6 | 20 to 50 (≈ 49.8 to 125 µM) |  |
| CNC(=O)c1ccc(-c2ncc(F)c(-c3cc4c([nH]3)C3(CCNCC3)CNC4=O)n2)cc1 [4—4, 4-(5-fluoro-4-(4′-oxo-1′,4′,5′,6′-tetrahydrospiro[piperidine-4,7′-pyrrolo[3,2-c]pyridine]-2′-yl)pyrimidin-2-yl)-N-methylbenzamide] | 3.16 to 31.6 | 20 to 50 (≈ 46 to 115 µM) |  |
| O=C1NCC2(CCNCC2)c2[nH]c(-c3ccnc(-c4nccs4)n3)cc21 [9—3, 2′-(2-(thiazol-2-yl)pyrimidin-4-yl)-5′,6′-dihydrospiro[piperidine-4,7′-pyrrolo[3,2-c]pyridin]-4′(1′H)-one] | 31.6 to 316 | ≥ 50 |  |
| NCC(=O)N1CCC2(CC1)CNC(=O)c1cc(-c3ccnc(-c4cc5ccccc5o4)n3)[nH]c12 [10—1, 1-(2-aminoacetyl)-2′-(2-(benzofuran-2-yl)pyrimidin-4-yl)-5′,6′-dihydrospiro[piperidine-4,7′-pyrrolo[3,2-c]pyridin]-4′(1′H)-one] | 31.6 to 316 | ≥ 50 |  |
| O=C1NCC2(CCOCC2)c2[nH]c(-c3ccnc(-c4cnc5ccccc5c4)n3)cc21 [17_2 Formula (XVI)] |  |  | EC50 (MK2 enzyme; Table 2, comparison compound of Formula (XVI), spiro ring without amine, read-out: pEC50, Formula (XVI) (converted)): 316 nM; solubility at 24 h ([1]; Table 2, comparison compound of Formula (XVI), spiro ring without amine, pH 7.4, read-out: Solubility pH 7.4 (mg/L), Formula (XVI)): 3 mg/L |
| O=C1NCC2(CCNCC2)c2[nH]c(-c3nc(-c4cc5ccccc5o4)ncc3F)cc21 [Example 4—1, 2′-(2-(benzofuran-2-yl)-5-fluoropyrimidin-4-yl)-5′,6′-dihydrospiro[piperidine-4,7′-pyrrolo[3,2-c]pyridin]-4′(1′H)-one] | 3.16 to 31.6 | 20 to 50 (≈ 47.9 to 120 µM) |  |
| CC(C)(C)c1ccc(-c2nccc(-c3cc4c([nH]3)C3(CCNCC3)CNC4=O)n2)cc1 [1—22, 2′-(2-(4-tert-butylphenyl)pyrimidin-4-yl)-5′,6′-dihydrospiro[piperidine-4,7′-pyrrolo[3,2-c]pyridin]-4′(1′H)-one] | 3.16 to 31.6 | ≥ 50 |  |
| O=C(NC1CCCCC1)c1ccc(-c2nccc(-c3cc4c([nH]3)C3(CCNCC3)CNC4=O)n2)cc1Cl [1—31, 2-chloro-N-cyclohexyl-4-(4-(4′-oxo-1′,4′,5′,6′-tetrahydrospiro[piperidine-4,7′-pyrrolo[3,2-c]pyridine]-2′-yl)pyrimidin-2-yl)benzamide] | 3.16 to 31.6 | ≥ 50 |  |
| O=C(Nc1cc(-c2cc3c([nH]2)C2(CCNCC2)CNC3=O)ccn1)c1ccc(C(F)(F)F)cc1 [Example 12—1, N-(4-(4′-oxo-1′,4′,5′,6′-tetrahydrospiro[piperidine-4,7′-pyrrolo[3,2-c]pyridine]-2′-yl)pyridin-2-yl)-4-(trifluoromethyl)benzamide] | ≤ 3.16 | 20 to 50 (≈ 42.6 to 107 µM) |  |
| Nc1ncc(-c2nccc(-c3cc4c([nH]3)C3(CCNCC3)CNC4=O)n2)cn1 [1—2, 2′-(2′-amino-2,5′-bipyrimidin-4-yl)-5′,6′-dihydrospiro[piperidine-4,7′-pyrrolo[3,2-c]pyridin]-4′(1′H)-one] | ≤ 3.16 | 20 to 50 (≈ 53.1 to 133 µM) |  |
| O=C1NCC2(CCNCC2)c2[nH]c(-c3ccnc(-c4cc5ccccc5o4)c3)cc21 [16_7 Formula (I)] |  |  | EC50 (MK2 enzyme; Table 1, compound of Formula (I) with spiro ring, read-out: pEC50, Formula (I) (converted)): 3.16 nM; solubility at 24 h ([1]; Table 1, compound of Formula (I) with spiro ring, pH 7.4, read-out: Solubility pH 7.4 (mg/L), Formula (I)): 66 mg/L |
| CC(=O)NCCN1CCC2(CC1)CNC(=O)c1cc(-c3ccnc(-c4cc5ccccc5o4)n3)[nH]c12 [Example 3—1, N-(2-(2′-(2-(benzofuran-2-yl)pyrimidin-4-yl)-4′-oxo-1′,4′,5′,6′-tetrahydrospiro[piperidine-4,7′-pyrrolo[3,2-c]pyridine]-1-yl)ethyl)acetamide] | 3.16 to 31.6 | ≥ 50 |  |
| O=C1NCC2(CCNCC2)c2[nH]c(-c3ccnc(-c4ccc5ccccc5c4)n3)cc21 [1—24, 2′-(2-(naphthalen-2-yl)pyrimidin-4-yl)-5′,6′-dihydrospiro[piperidine-4,7′-pyrrolo[3,2-c]pyridin]-4′(1′H)-one] | 3.16 to 31.6 | ≥ 50 |  |
| O=C1NCC2(CCNCC2)c2[nH]c(-c3ccnc(-c4nc5ccccc5s4)c3)cc21 [Example 9—1, 2′-(2-(benzo[d]thiazol-2-yl)pyridin-4-yl)-5′,6′-dihydrospiro[piperidine-4,7′-pyrrolo[3,2-c]pyridin]-4′(1′H)-one] | 3.16 to 31.6 | ≥ 50 |  |
| O=C1NCC2(CCNCC2)c2[nH]c(-c3ccnc(-c4cc(C(F)(F)F)cc(C(F)(F)F)c4)n3)cc21 [1—34, 2′-(2-(3,5-bis(trifluoromethyl)phenyl)pyrimidin-4-yl)-5′,6′-dihydrospiro[piperidine-4,7′-pyrrolo[3,2-c]pyridin]-4′(1′H)-one] | 31.6 to 316 | ≥ 50 |  |
| O=C(Nc1nccc(-c2cc3c([nH]2)C2(CCCNC2)CNC3=O)n1)c1cccc(OC(F)(F)F)c1 (stereo not drawn) [13—2, N-(4-(4′-oxo-1′,4′,5′,6′-tetrahydrospiro[piperidine-3,7′-pyrrolo[3,2-c]pyridine]-2′-yl)pyrimidin-2-yl)-3-(trifluoromethoxy)benzamide] | 31.6 to 316 | 20 to 50 (≈ 41.1 to 103 µM) |  |
| O=C1NCC2(CCNCC2)c2[nH]c(-c3ccnc(-c4nc5ccccc5s4)n3)cc21 [9—2, 2′-(2-(benzo[d]thiazol-2-yl)pyrimidin-4-yl)-5′,6′-dihydrospiro[piperidine-4,7′-pyrrolo[3,2-c]pyridin]-4′(1′H)-one] | 3.16 to 31.6 | ≥ 50 |  |
| CC(C)c1cccc(-c2nccc(-c3cc4c([nH]3)C3(CCNCC3)CNC4=O)n2)c1 [1—14, 2′-(2-(3-isopropylphenyl)pyrimidin-4-yl)-5′,6′-dihydrospiro[piperidine-4,7′-pyrrolo[3,2-c]pyridin]-4′(1′H)-one] | 31.6 to 316 | 20 to 50 (≈ 49.8 to 125 µM) |  |
| CCC(=O)Nc1ccc(-c2nccc(-c3cc4c([nH]3)C3(CCNCC3)CNC4=O)n2)cn1 [1—9, N-(5-(4-(4′-oxo-1′,4′,5′,6′-tetrahydrospiro[piperidine-4,7′-pyrrolo[3,2-c]pyridine]-2′-yl)pyrimidin-2-yl)pyridin-2-yl)propionamide] | 3.16 to 31.6 | ≥ 50 |  |
| O=C(NC1CCCCC1)c1ccc(-c2nccc(-c3cc4c([nH]3)C3(CCNCC3)CNC4=O)n2)cc1 [1—36, N-cyclohexyl-4-(4-(4′-oxo-1′,4′,5′,6′-tetrahydrospiro[piperidine-4,7′-pyrrolo[3,2-c]pyridine]-2′-yl)pyrimidin-2-yl)benzamide] | 3.16 to 31.6 | ≥ 50 |  |
| O=C1NCC2(CCNCC2)c2[nH]c(-c3nc(-c4ccc(Cl)cc4F)ncc3F)cc21 [4—5, 2′-(2-(4-chloro-2-fluorophenyl)-5-fluoropyrimidin-4-yl)-5′,6′-dihydrospiro[piperidine-4,7′-pyrrolo[3,2-c]pyridin]-4′(1′H)-one] | 3.16 to 31.6 | ≥ 50 |  |
